pIC50: −log10 of the molar value. Where a name gives a salt, the structure may show the parent alone.
System: not given
Test: not given
Conditions: not given

Compound | melting point [°C]
COCCCOc1cc(CCC(=O)NC(=N)N)ccc1-c1ccc(CN2CCN(C)CC2=O)cc1 (as salt: HCl) [Compound 78] | 61.5
COCCCOc1cc(C(C)(C)CC(=O)NC(=N)N)ccc1-c1ccc(CN2CCC(N(C)C)CC2)cc1 (as salt: HCl) [Compound 22] | 105.5

Second part, the compound after the results:

melting point [°C] | Compound
54 to 55 | CNC(=N)NC(=O)CCc1ccc(-c2cccc(N(C)C(=O)N3CCOCC3)c2)c(OCCCOC)c1.Cl
128 | COCCCOc1cc(CCC(=O)NC(=N)NCCc2ccccn2)ccc1-c1ccc(CN2CCC(N(C)C)CC2)cc1 (as salt: HCl) [Compound 6]
132 | COCCCOc1cc(CCC(=O)NC2=NC(=O)C(C)(C)CN2)ccc1-c1ccc(CN2CCC(N(C)C)CC2)cc1.Cl

Target: T1, Recombinant human renin (Homo sapiens, UniProt P00797)
T1 construct: made in house; host or cells: Chinese Hamster Ovary (CHO) cells
T1 sequence (P00797 67-406): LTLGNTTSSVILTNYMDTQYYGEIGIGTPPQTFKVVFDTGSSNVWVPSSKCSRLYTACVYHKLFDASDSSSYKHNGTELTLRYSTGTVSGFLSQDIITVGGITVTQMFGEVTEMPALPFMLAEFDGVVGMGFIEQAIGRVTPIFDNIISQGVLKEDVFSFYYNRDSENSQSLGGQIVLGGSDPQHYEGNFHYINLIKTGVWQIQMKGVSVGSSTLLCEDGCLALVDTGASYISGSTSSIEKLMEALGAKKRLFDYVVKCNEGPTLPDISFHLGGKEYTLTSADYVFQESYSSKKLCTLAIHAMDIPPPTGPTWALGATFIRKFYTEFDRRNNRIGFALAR
Test: Renin inhibition in a purified system (FRET, synthetic substrate Dabcyl-gaba-IHPFHLVIHT-EDANS)
Assay type: biochemical
Conditions: renin 10 nM, substrate 10 μM, 2 h, room temperature, pH 8
Method: The protocol for the determination in a purified system of the in vitro IC50s of the compounds of the invention is described hereafter.
Recombinant human renin (expressed as prorenin in Chinese Hamster Ovary and purified after activation in active renin using standard methods) at 10 nM concentration is incubated with test compounds at various concentrations and the synthetic substrate Dabcyl-gaba-IHPFHLVIHT-EDANS (Bachem) at 10 μM for 2 h at room temperature, in 0.05 M Tris buffer pH 8 containing 0.1 M NaCl, 2.5 mM EDTA and 1.25 mg/ml bovine serum albumin. Increase in fluorescence (due to the Fluorescence Resonance Energy Transfer) is recorded at an excitation wave-length of 330 nm and at an emission wave length of 485 nm in a microplate spectrofluorometer. IC50 values are calculated from the percentage of inhibition of renin activity as a function of test compound concentration.

Compound | pIC50
CCCCNC(=N)NC(=O)CCc1ccc(-c2ccc(CN3CCN(CC(=O)N(C)C)CC3)cc2)c(OCCCOC)c1 [Compound 30] | 7.15
COCCCOc1cc(CCC(=O)NC(=N)N)ccc1-c1ccc(CN2CCCCC2)cc1 [Compound 13, N-[amino(imino)methyl]-3-[2-(3-methoxypropoxy)-4′-(piperidin-1-ylmethyl)biphenyl-4-yl]propanamide hydrochloride] | 7.10
CCCCNC(=N)NC(=O)CCc1ccc(-c2ccc(CNCC(c3ccccc3)N(C)C)cc2)c(OCCCOC)c1 (stereo not shown) [Compound 48, N-butyl-N′-{3-[4′-[(2-dimethylamino-2-phenyl-ethylamino)-methyl]-2-(3-methoxy-propoxy)-biphenyl-4-yl]-propionyl}-guanidine, trifluoro-acetic acid salt] | 6.84
COCCCOc1cc(CCC(=O)NC(=N)N)ccc1-c1cccc(CN2CCCCC2=O)c1 [Compound 179] | 7.72
COCCCOc1cc(CCC(=O)NC(=N)N)ccc1-c1ccc(CN2CCN(C)CC2=O)cc1 [Compound 78] | 7.38
CNC(=N)NC(=O)CCc1ccc(-c2ccc(Cl)c(CS(=O)(=O)C(C)(C)C)c2)c(OCCCOC)c1 [Compound 194, 3-{3′-[(tert-butylsulfonyl)methyl]-4′-chloro-2-(3-methoxypropoxy)biphenyl-4-yl}-N-(methylcarbamimidoyl)propanamide hydrochloride] | 7.32
COCCCOc1cc(CCC(=O)NC(=N)NCCC(C)C)ccc1-c1ccc(CN2CCC(N(C)C)CC2)cc1 [Compound 11] | 7.64
COCCCOc1cc(CCC(=O)NC(=N)N)ccc1-c1nccs1 [Compound 157] | 6.90

Results, then the compound that gave them:

pIC50 | Compound
7.28 | COCCCOc1cc(CCC(=O)NC(=N)N)ccc1-c1ccc(CN2CCN(C)C2=O)cc1 [Compound 173]
7.00 | COCCCOc1cc(CCC(=O)NC(=N)NCCc2ccccn2)ccc1-c1ccc(CN2CCC(N(C)C)CC2)cc1 [Compound 6]
7.01 | COCCCOc1cc(CCC(=O)NC(=N)N)ccc1-c1cccnc1 [Compound 21, hydrochloride]
6.64 | CCCNC(=N)NC(=O)CC(C)(C)c1ccc(-c2ccc(C(=O)N3CCN(C)CC3)cc2)c(OCCCOC)c1 [Compound 25, N-[imino(propylamino)methyl]-3-{2-(3-methoxypropoxy)-4′-[(4-methylpiperazin-1-yl)carbonyl]biphenyl-4-yl}-3-methylbutanamide hydrochloride]
8.00 | COCCCOc1cc(C(C)(C)CC(=O)NC(=N)N)ccc1-c1ccc(CN2CCC(N(C)C)CC2)cc1 [Compound 22]
7.72 | COCCCOc1cc(CCC(=O)NC(=N)N)ccc1-c1ccc(CN2CCC(N(C)C)CC2)cc1 [Compound 2, N-[amino(imino)methyl]-3-[4′-{[4-(dimethylamino)piperidin-1-yl]methyl}-2-(3-methoxypropoxy)biphenyl-4-yl]propanamide hydrochloride]

From patent US8153647B2, “Aryl- and heteroaryl-ethyl-acylguanidine derivatives, their preparation and their application in therapeutics” (Sanofi-Aventis, priority 2006, dated 2012)
